Patent US20260226101A1, “PEPTIDE WITH ANTI-INFLAMMATORY AND ANTI-MICROBIAL ACTIVITY” (priority 2023, published 2026)

Experiment: in vitro
Type: cell-based, murine
Conditions: mouse
Description: Cell viability of synthetic peptides on the growth of RAW264.7 cells was measured using the methyl thiazolyl tetrazolium (MTT) assay after 48 h. Briefly, exponentially growing macrophages RAW264.7 cells were mechanically scraped, plated at a density of 7×10^3 cells in 100 μl were seeded into each well of a 96-well plate then incubated for 12 h at 37° C. under 5% CO2, and then the cells are treated with test peptides: IS 111 ([…]) or dexamethasone ([…]) cells were incubated at 37° C. in the presence of 5% CO2 for 42 h. After incubation, the morphology of cells was examined under a microscope. Following incubation, MTT was added to the cells (20 μL at 5 mg/mL MTT dissolved in 1×PBS) and incubated for 4 hours in the presence of 5% CO2 at 37° C. Formazan crystals were dissolved by the addition of 100 μL of 100% DMSO per well. Plates were then gently swirled for 5 min at room temperature to dissolve the precipitate. Absorbance was monitored at 575 nm using a microplate reader. Maximum cytotoxicity (100%) was determined by cells incubated with 1% Triton X-100; PBS was used as a negative control. Cells without treatment were considered as control. The average absorbance for each sample group was used to evaluate cell viability.
Optical density (O.D.) was calculated as the difference between the absorbance at the reference wavelength and that at the test wavelength. The relative cell viability was determined by the amount of MTT converted to the insoluble formazan salt. The data were expressed as the mean percentage of viable cells when compared with untreated cells (control). The half maximal growth inhibitory concentration (IC50) value was calculated from the line equation of the dose-dependent curve of each compound. The results were compared with the cytotoxic activity of dexamethasone, a known anti-inflammatory drug. […] Percentages of cell viability and LC50 of cells were calculated: Percent cell viability was calculated as (O.D. of drug-treated sample/control O.D.)×100. The data were expressed as percent cell viability compared with control (dimethyl sulfoxide/NS). The experiment was carried out in four samples of each concentration.
The percentages of cell viability and LC50 of cells were calculated by using the formula below.
Where Absorbance control is the DMSO 0.1%-treated cell absorbance, and Absorbance sample is the test sample-treated cell absorbance. LC50 values were derived from dose-response curves, and data were expressed as the mean of three independent experiments. Statistical analyses involved Student's t-test and one-way ANOVA.
The test peptide IS 111 cytotoxic effects on RAW 264.7 mouse […] were determined by MTT assay. […] Cell viability was measured by MTT assay based on the conversion of yellow tetrazolium salt to form a purple formazan product. The viability of the RAW 264.7 cells can be seen on table 21.

For `C[C@@H]1C[C@H]2[C@@H]3CCC4=CC(=O)C=C[C@]4(C)[C@@]3(F)[C@@H](O)C[C@]2(C)[C@@]1(O)C(=O)CO` [Dexamethasone, dexamethasone, reference compound], the viability at 48 h, 7.8125 µg/mL was 102%, the viability at 48 h, 15.625 µg/mL was 90% and the viability at 48 h, 31.25 µg/mL was 82.8%. It also gave a viability at 48 h, 62.5 µg/mL of 91.4%, a viability at 48 h, 125 µg/mL of 96% and a viability at 48 h, 250 µg/mL of 90.8%. For the same compound, the viability at 48 h, 500 µg/mL was 84.6%.
